Reference: patent publication US8637558B2 (Industry-Academic Cooperation Foundation, Chosun University, priority 2008, dated 2014)

Molecular target: 15-PGDH (Homo sapiens (Human), UniProt P15428)
Assay: Assay for the activities of 15-PGDH inhibitors (formation of NADH at 340 nm)
Format: biochemical
Settings: purified 15-PGDH enzyme, 21 μM PGE2, 0.25 mM NAD+, pH 7.5; concentration inhibiting 50% of 15-PGDH activity

Chain of 15-PGDH (P15428 whole entry): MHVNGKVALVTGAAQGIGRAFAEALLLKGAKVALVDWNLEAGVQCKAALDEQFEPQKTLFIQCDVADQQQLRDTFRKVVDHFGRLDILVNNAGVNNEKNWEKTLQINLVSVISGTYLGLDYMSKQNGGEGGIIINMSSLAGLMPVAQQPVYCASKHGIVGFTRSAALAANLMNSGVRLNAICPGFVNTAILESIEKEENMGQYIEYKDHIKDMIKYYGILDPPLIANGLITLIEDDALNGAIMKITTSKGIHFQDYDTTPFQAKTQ

O=C1NC(=O)C(Cc2ccc(OCCC3CCCC3)cc2)S1 (stereo not shown) [Derivative 130, 5-(4-(2-cyclopentylethoxy)benzyl)thiazolidine-2,4-dione]
IC50: 777 nM
